Assays:
Type in all cases: cell-based
AGS cell strain [1] = test: Cell growth test (CCK-8 assay) after transfection of BART miRNA mimics; details: mimic 10 nM, 72 hours after transfection, relative to scrambled control (=1), n=9
Experimental: An AGS cell strain (Korean Cell Line Bank), which is a stomach cancer cell strain, was cultured in an RPMI1640 (Gibco) culture medium including 10% fetal bovine serum. Mature type synthesized BART miRNAs were transfected to the AGS cell strain by using G-fectin (Genolution) according to a protocol of the manufacture.
To investigate the effect of individual EBV BART miRNAs on the AGS cell strain, the synthesized miRNAs were transfected to the AGS cell strain and, after 72 hours, cells were counted by CCK-8 assay.
Immediately after the AGS cell strain, which is an EBV-negative cell strain, was divided into 96-well plate having 1×10^3 cells/well, a synthesized miRNA (10 nM) was transfected by using G-fectin. After the transfection, according to the experimental objective, the cells were cultured at 37° C. in an incubator, and then CCK-8 was divided among the wells by allocating 10 μl of CCK-8 to each well and the resulting mixture was cultured in an incubator at 37° C. for two hours. Then, the light absorbance was measured with an ELISA measuring instrument.
By the method described in Example 3, miR-BART5-5p mimic or miR-BART15-3p mimic (10 nM) were transfected to the AGS cell strain, and the effect thereof on cell growth was investigated over time.
miR-BART5-5p, miR-BART15-3p, and miR-BART20-3p were transfected to the AGS cell strain (1×10^3 cells/well) in a concentration of 1, 3, 10, and 30 nM, and the effect on cell growth was investigated. Immediately after the AGS cell strain was divided into a 96-well plate such that 1×10^3 AGS cells were allocated to each well, a synthesized miRNA was transfected by using G-fectin. Seventy two hours after the transfection, CCK-8 was divided among the wells by allocating 10 μl of CCK-8 to each well, and the resulting mixture was cultured at 37° C. in an incubator for two hours.

AGS cell strain [2] = test: Effect on cell cycle (propidium iodide staining, FACS, sub G1); details: mimic 10 nM, 10 uM 5-FU 24 h after transfection, then 48 hours, relative to scrambled control (=1)
Experimental: The AGS cells were divided into a 96-well plate such that 2×10^5 AGS cells were allocated to each well, and synthesized miRNAs (10 nM) were transfected and cultured at 37° C. in an incubator. Twenty four hours after the transfection, 10 uM of 5-FU, which is an anti-cancer agent, was treated in one case or not treated in another case, and then the resulting mixture was cultured in an incubator at 37° C. for 48 hours. The cells were detached by using Trypsin-EDTA and washed with PBS two times.
Immediately after the AGS cell strains, which are EBV-negative cell strains, were divided into a 6-well plate such that 2×10^5 AGS cells were allocated to each well, a synthesized miRNA (10 nM) was transfected by using G-fectin and cultured at 37° C. in an incubator. Twenty four hours after the transfection, 10 uM of 5-FU was treated and the resulting mixture was cultured at 37° C. in an incubator for 48 hours. The cells were detached by using Trypsin-EDTA and washed with PBS two times. Afterwards, DNA was stained by propidium iodide staining and the ratio of cells where cell cycle was changed was investigated by FACS.

AGS cell strain [3] = test: Measurement of apoptosis (Annexin V staining, FACS); details: for Relative Apoptotic cell: AGS, mimic 10 nM, 10 uM 5-FU 24 h after transfection, then 48 hours, Annexin V, relative to scrambled control (=1), n=9; for effect on cell growth and apoptosis (summary statement): mimics transfected to AGS, tumor cell strain not infected with EBV
Experimental: Immediately after the AGS cell strain, which is an EBV-negative cell strain, was divided was divided into a 6-well plate such that 2×10^5 AGS cells were allocated to each well, a synthesized miRNA (10 nM) was transfected by using G-fectin and the resulting mixture was cultured at 37 t in an incubatorTwenty four hours after the transfection, 10 uM of 5-FU was treated and the resulting mixture was cultured in an incubator at 37° C. for 48 hours. The cells were detached by using Trypsin-EDTA and washed with PBS two times. Afterwards, the cells were treated with a PE Annexin V Apoptosis Detection Kit and the changed ratio of apoptotic cell was investigated by FACS (FIG. 7).
Immediately after the AGS cell strain, which is an EBV-negative cell strain, is divided into a 6-well plate such that 2×10^5 AGS cells were allocated to each well, a synthesized miRNA (10 nM) was transfected by using G-fectin and the resulting mixture was cultured at 37° C. Twenty four hours after the transfection, 10 uM of 5-FU, which is an anti-cancer agent, was treated and the resulting mixture was cultured in an incubator at 37° C. for 48 hours. The cells were detached by using Trypsin-EDTA and washed with PBS two times. Afterwards, the cells were treated with a PE Annexin V Apoptosis Detection Kit and the ratio of cells where apoptosis took place was measured by FACS.

Substance	Relative Cell Growth (AGS cell strain [1])	Relative Sub G1 (AGS cell strain [2])	Relative Apoptotic cell (AGS cell strain [3])	effect on cell growth and apoptosis (summary statement) (AGS cell strain [3])	further results
BART1-5p: EBV BART miRNA mimic, double stranded RNA; sense SEQ NO: 9, antisense SEQ NO: 10 (sense UCUUAGUGGAAGUGACGUGCUGUG; antisense CACAGCACGUCACUUCCACUAAGA; chemistry not given here)	1.141	0.8028	1.08	inhibit cell growth and promote apoptosis	Relative Apoptotic cell (AGS cell strain [3]; listed as 1-5p): significantly higher
BART6-5p: EBV BART miRNA mimic, double stranded RNA; sense SEQ NO: 29, antisense SEQ NO: 30 (sense UAAGGUUGGUCCAAUCCAUAGG; antisense CCUAUGGAUUGGACCAACCUUA; chemistry not given here)	0.881	1.023	1.117		
BART19-3p: EBV BART miRNA mimic, double stranded RNA; sense SEQ NO: 71, antisense SEQ NO: 72 (sense UUUUGUUUGCUUGGGAAUGCU; antisense AGCAUUCCCAAGCAAACAAAA; chemistry not given here)	1.237	1.244	0.9742		Relative Sub G1 (AGS cell strain [2]; listed as 19-3p): increased
BART16-3p: EBV BART miRNA mimic, double stranded RNA; sense SEQ NO: 23, antisense SEQ NO: 24 (sense AUCACCACCCUCUAUCCAUAU; antisense AUAUGGAUAGAGGGUGGUGAU; chemistry not given here)	1.159	0.9852	1.37	inhibit cell growth and promote apoptosis	Relative Apoptotic cell (AGS cell strain [3]; listed as 16-3p): significantly higher
BART12-5p: EBV BART miRNA mimic, double stranded RNA; sense SEQ NO: 65, antisense SEQ NO: 66 (sense ACCCGCCCAUCACCACCGGAC; antisense GUCCGGUGGUGAUGGGCGGGU; chemistry not given here)	1.159	1.135	0.9458		Relative Sub G1 (AGS cell strain [2]; listed as 12-5p): increased
BART13-3p: EBV BART miRNA mimic, double stranded RNA; sense SEQ NO: 79, antisense SEQ NO: 80 (sense UGUAACUUGCCAGGGACGGCUGA; antisense UCAGCCGUCCCUGGCAAGUUACA; chemistry not given here)	1.255	0.9813	1.187	inhibit cell growth and promote apoptosis	Relative Apoptotic cell (AGS cell strain [3]; listed as 13-3p): significantly higher
BART9-5p: EBV BART miRNA mimic, double stranded RNA; sense SEQ NO: 49, antisense SEQ NO: 50 (sense UACUGGACCCUGAAUUGGAAAC; antisense GUUUCCAAUUCAGGGUCCAGUA; chemistry not given here)	1.482	1.005	1.25	inhibit cell growth and promote apoptosis	Relative Apoptotic cell (AGS cell strain [3]; listed as 9-5p): significantly higher
BART10-5p: EBV BART miRNA mimic, double stranded RNA; sense SEQ NO: 57, antisense SEQ NO: 58 (sense GCCACCUCUUUGGUUCUGUACA; antisense UGUACAGAACCAAAGAGGUGGC; chemistry not given here)	1.646	0.833	0.8373		
BART8-5p: EBV BART miRNA mimic, double stranded RNA; sense SEQ NO: 45, antisense SEQ NO: 46 (sense UACGGUUUCCUAGAUUGUACAG; antisense CUGUACAAUCUAGGAAACCGUA; chemistry not given here)	1.448	1.013	0.9757		
BART3-5p: EBV BART miRNA mimic, double stranded RNA; sense SEQ NO: 1, antisense SEQ NO: 2 (sense ACCUAGUGUUAGUGUUGUGCU; antisense AGCACAACACUAACACUAGGU; chemistry not given here)	1.272	0.8224	1.016		
BART1-3p: EBV BART miRNA mimic, double stranded RNA; sense SEQ NO: 11, antisense SEQ NO: 12 (sense UAGCACCGCUAUCCACUAUGUC; antisense GACAUAGUGGAUAGCGGUGCUA; chemistry not given here)	1.201	0.7947	0.9231		
BART2-3p: EBV BART miRNA mimic, double stranded RNA; sense SEQ NO: 87, antisense SEQ NO: 88 (sense AAGGAGCGAUUUGGAGAAAAUAAA; antisense UUUAUUUUCUCCAAAUCGCUCCUU; chemistry not given here)	1.433	1.178	1.062	inhibit cell growth and promote apoptosis	Relative Apoptotic cell (AGS cell strain [3]; listed as 2-3p): significantly higher
BART22-5p: EBV BART miRNA mimic, double stranded RNA; sense SEQ NO: 53, antisense SEQ NO: 54 (sense UGCUAGACCCUGGAGUUGAACC; antisense GGUUCAACUCCAGGGUCUAGCA; chemistry not given here)	1.529	0.9654	1.197	inhibit cell growth and promote apoptosis	Relative Apoptotic cell (AGS cell strain [3]; listed as 22-5p): significantly higher

Reference: patent US9243247B2, “Composition for promoting apoptosis or inhibiting cell growth, comprising epstein-barr virus microrna” (Catholic University Industry Academic Cooperation Foundation, priority 2011, dated 2016)
